According to ChEMBL document CHEMBL1201862, “PubChem BioAssay data set” (2004):
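1) Cells in 96-well plates. 2) Compound, 48 h, 5 concentrations. 3) Linear interpolation between surrounding doses. 4) Unreached endpoint = highest concentration. GI50 is the concentration that inhibits growth by half.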 The source made the active and inactive calls. Cut-off read from the data, not from the text of the source: active = GI50 up to about 1.1 µM and inactive = higher.

Experiments:
Experiment in all cases: DTP human tumour cell line panel, 48 h
UACC-62 = test system: UACC-62
SW-620 = test system: SW-620
SNB-19 = test system: SNB-19
SR = test system: SR
CCRF-CEM = test system: CCRF-CEM
A498 = test system: A498
LOX IMVI = test system: LOX IMVI
HOP-62 = test system: HOP-62
U-251 = test system: U-251
MDA-MB-231 = test system: MDA-MB-231
A549 = test system: A549
OVCAR-4 = test system: OVCAR-4
UO-31 = test system: UO-31
NCI-H460 = test system: NCI-H460
HCC 2998 = test system: HCC 2998
MDA-MB-435 = test system: MDA-MB-435
786-0 = test system: 786-0
MDA-N = test system: MDA-N
SF-295 = test system: SF-295
NCI/ADR-RES = test system: NCI/ADR-RES
Hs-578T = test system: Hs-578T
KM12 = test system: KM12
EKVX = test system: EKVX
HCT-116 = test system: HCT-116
M14 = test system: M14
K562 = test system: K562
HL-60 = test system: HL-60
T47D = test system: T47D
OVCAR-3 = test system: OVCAR-3
RXF 393 = test system: RXF 393
PC-3 = test system: PC-3
IGROV-1 = test system: IGROV-1
SK-OV-3 = test system: SK-OV-3
HOP-92 = test system: HOP-92
RPMI-8226 = test system: RPMI-8226
DU-145 = test system: DU-145
TK-10 = test system: TK-10
ACHN = test system: ACHN
MOLT-4 = test system: MOLT-4
OVCAR-5 = test system: OVCAR-5
CAKI-1 = test system: CAKI-1
NCI-H226 = test system: NCI-H226
HT-29 = test system: HT-29
SK-MEL-28 = test system: SK-MEL-28
BT-549 = test system: BT-549
NCI-H23 = test system: NCI-H23
SNB-75 = test system: SNB-75
SF-268 = test system: SF-268
SK-MEL-5 = test system: SK-MEL-5
SN12C = test system: SN12C
HCT-15 = test system: HCT-15
Malme-3M = test system: Malme-3M
NCI-H522 = test system: NCI-H522
MCF7 = test system: MCF7
OVCAR-8 = test system: OVCAR-8
COLO 205 = test system: COLO 205
SK-MEL-2 = test system: SK-MEL-2
SF-539 = test system: SF-539
UACC-257 = test system: UACC-257

O=C1CN(C(=O)C2CCCN2C(=O)C2CCCN2)C(=O)CN1 (stereo unspecified)
GI50 (UACC-62): > 100 µM (inactive)
GI50 (SW-620): > 100 µM (inactive)
GI50 (SNB-19): > 100 µM (inactive)
GI50 (SR): > 100 µM (inactive)
GI50 (CCRF-CEM): > 100 µM (inactive)
GI50 (A498): 55.2 µM (inactive)
GI50 (LOX IMVI): > 100 µM (inactive)
GI50 (HOP-62): > 100 µM (inactive)
GI50 (U-251): > 100 µM (inactive)
GI50 (MDA-MB-231): > 100 µM (inactive)
GI50 (A549): > 100 µM (inactive)
GI50 (OVCAR-4): > 100 µM (inactive)
GI50 (UO-31): > 100 µM (inactive)
GI50 (NCI-H460): > 100 µM (inactive)
GI50 (HCC 2998): > 100 µM (inactive)
GI50 (MDA-MB-435): 36.8 µM (inactive)
GI50 (786-0): > 100 µM (inactive)
GI50 (MDA-N): > 100 µM (inactive)
GI50 (SF-295): > 100 µM (inactive)
GI50 (NCI/ADR-RES): > 100 µM (inactive)
GI50 (Hs-578T): > 100 µM (inactive)
GI50 (KM12): > 100 µM (inactive)
GI50 (EKVX): > 100 µM (inactive)
GI50 (HCT-116): > 100 µM (inactive)
GI50 (M14): > 100 µM (inactive)
GI50 (K562): > 100 µM (inactive)
GI50 (HL-60): > 100 µM (inactive)
GI50 (T47D): > 100 µM (inactive)
GI50 (OVCAR-3): > 100 µM (inactive)
GI50 (RXF 393): > 100 µM (inactive)
GI50 (PC-3): > 100 µM (inactive)
GI50 (IGROV-1): > 100 µM (inactive)
GI50 (SK-OV-3): > 100 µM (inactive)
GI50 (HOP-92): > 100 µM (inactive)
GI50 (RPMI-8226): > 100 µM (inactive)
GI50 (DU-145): > 100 µM (inactive)
GI50 (TK-10): > 100 µM (inactive)
GI50 (ACHN): > 100 µM (inactive)
GI50 (MOLT-4): > 100 µM (inactive)
GI50 (OVCAR-5): > 100 µM (inactive)
GI50 (CAKI-1): > 100 µM (inactive)
GI50 (NCI-H226): > 100 µM (inactive)
GI50 (HT-29): > 100 µM (inactive)
GI50 (SK-MEL-28): > 100 µM (inactive)
GI50 (BT-549): > 100 µM (inactive)
GI50 (NCI-H23): > 100 µM (inactive)
GI50 (SNB-75): > 100 µM (inactive)
GI50 (SF-268): > 100 µM (inactive)
GI50 (SK-MEL-5): > 100 µM (inactive)
GI50 (SN12C): > 100 µM (inactive)
GI50 (HCT-15): > 100 µM
GI50 (Malme-3M): > 100 µM (inactive)
GI50 (NCI-H522): > 100 µM (inactive)
GI50 (MCF7): > 100 µM (inactive)
GI50 (OVCAR-8): > 100 µM (inactive)
GI50 (COLO 205): > 100 µM (inactive)

O=C1C=CC(=O)c2c1cc([N+](=O)[O-])c1ccoc21
GI50 (UACC-62): 15.8 µM (inactive)
GI50 (SW-620): 2.36 µM (inactive)
GI50 (SNB-19): 21.5 µM (inactive)
GI50 (SR): 5.37 µM (inactive)
GI50 (CCRF-CEM): 2.1 µM (inactive)
GI50 (A498): 15.5 µM (inactive)
GI50 (LOX IMVI): 9.66 µM (inactive)
GI50 (HOP-62): 16.5 µM (inactive)
GI50 (U-251): 18.5 µM (inactive)
GI50 (MDA-MB-231): 21.3 µM (inactive)
GI50 (A549): 20.9 µM (inactive)
GI50 (OVCAR-4): 18.9 µM (inactive)
GI50 (UO-31): 3.01 µM (inactive)
GI50 (NCI-H460): 18.2 µM (inactive)
GI50 (HCC 2998): 19.5 µM (inactive)
GI50 (MDA-MB-435): 11.7 µM (inactive)
GI50 (786-0): 1.77 µM (inactive)
GI50 (MDA-N): 17.1 µM (inactive)
GI50 (SF-295): 19.1 µM (inactive)
GI50 (NCI/ADR-RES): 22.6 µM (inactive)
GI50 (Hs-578T): 28.1 µM (inactive)
GI50 (KM12): 15.9 µM (inactive)
GI50 (EKVX): 17.8 µM (inactive)
GI50 (HCT-116): 6.03 µM (inactive)
GI50 (M14): 6.17 µM (inactive)
GI50 (K562): 2.75 µM (inactive)
GI50 (HL-60): 0.743 µM (active)
GI50 (T47D): 2.8 µM (inactive)
GI50 (OVCAR-3): 11.5 µM (inactive)
GI50 (RXF 393): 1.97 µM (inactive)
GI50 (PC-3): 15.6 µM (inactive)
GI50 (SK-MEL-2): 18.4 µM (inactive)
GI50 (IGROV-1): 17.7 µM (inactive)
GI50 (SK-OV-3): 20.4 µM (inactive)
GI50 (HOP-92): 1.96 µM (inactive)
GI50 (RPMI-8226): 4.37 µM (inactive)
GI50 (DU-145): 9.06 µM (inactive)
GI50 (TK-10): 2.18 µM (inactive)
GI50 (SF-539): 27.2 µM (inactive)
GI50 (ACHN): 1.82 µM (inactive)
GI50 (MOLT-4): 0.942 µM (active)
GI50 (OVCAR-5): 18.5 µM (inactive)
GI50 (CAKI-1): 1.6 µM (inactive)
GI50 (NCI-H226): 26.6 µM (inactive)
GI50 (HT-29): 17.3 µM (inactive)
GI50 (SK-MEL-28): 20.1 µM (inactive)
GI50 (BT-549): 16.9 µM (inactive)
GI50 (UACC-257): 10.7 µM (inactive)
GI50 (NCI-H23): 22.6 µM (inactive)
GI50 (SNB-75): 26.1 µM (inactive)
GI50 (SF-268): 26.2 µM (inactive)
GI50 (SK-MEL-5): 16.4 µM (inactive)
GI50 (SN12C): 15.2 µM (inactive)
GI50 (HCT-15): 23.3 µM
GI50 (NCI-H522): 2.07 µM (inactive)
GI50 (MCF7): 14.3 µM (inactive)
GI50 (OVCAR-8): 26.2 µM (inactive)
GI50 (COLO 205): 2.49 µM (inactive)

CCOC(=O)Nc1cc2c(c(N)n1)N=C(c1ccccc1)CN2
GI50 (UACC-62): < 0.0001 µM (active)
GI50 (SW-620): < 0.01 µM (active)
GI50 (SNB-19): < 0.01 µM (active)
GI50 (SR): < 0.01 µM (active)
GI50 (CCRF-CEM): < 0.01 µM (active)
GI50 (A498): 0.31 µM (active)
GI50 (LOX IMVI): < 0.01 µM (active)
GI50 (HOP-62): < 0.01 µM (active)
GI50 (U-251): < 0.01 µM (active)
GI50 (MDA-MB-231): < 0.01 µM (active)
GI50 (A549): < 0.01 µM (active)
GI50 (OVCAR-4): 28.1 µM (inactive)
GI50 (UO-31): < 0.0194 µM (active)
GI50 (NCI-H460): < 0.01 µM (active)
GI50 (HCC 2998): < 0.01 µM (active)
GI50 (MDA-MB-435): < 0.01 µM (active)
GI50 (786-0): < 0.01 µM (active)
GI50 (MDA-N): < 0.01 µM (active)
GI50 (SF-295): < 0.01 µM (active)
GI50 (NCI/ADR-RES): < 0.0001 µM (active)
GI50 (Hs-578T): < 0.0001 µM (active)
GI50 (KM12): < 0.01 µM (active)
GI50 (EKVX): < 0.0187 µM (active)
GI50 (HCT-116): < 0.01 µM (active)
GI50 (M14): < 0.01 µM (active)
GI50 (K562): < 0.01 µM (active)
GI50 (HL-60): < 0.0001 µM (active)
GI50 (T47D): 37.3 µM (inactive)
GI50 (OVCAR-3): < 0.01 µM (active)
GI50 (RXF 393): < 0.0001 µM (active)
GI50 (PC-3): < 0.01 µM (active)
GI50 (IGROV-1): < 0.01 µM (active)
GI50 (SK-OV-3): 0.0527 µM (active)
GI50 (HOP-92): < 0.01 µM (active)
GI50 (RPMI-8226): < 0.01 µM (active)
GI50 (DU-145): < 0.01 µM (active)
GI50 (TK-10): 10.7 µM (inactive)
GI50 (SF-539): < 0.01 µM (active)
GI50 (ACHN): < 0.01 µM (active)
GI50 (MOLT-4): < 0.01 µM (active)
GI50 (OVCAR-5): < 0.01 µM (active)
GI50 (CAKI-1): < 0.01 µM (active)
GI50 (HT-29): < 0.01 µM (active)
GI50 (SK-MEL-28): 14.5 µM (inactive)
GI50 (BT-549): < 0.01 µM (active)
GI50 (UACC-257): 12.8 µM (inactive)
GI50 (NCI-H23): < 0.01 µM (active)
GI50 (SNB-75): < 0.01 µM (active)
GI50 (SF-268): < 0.01 µM (active)
GI50 (SK-MEL-5): < 0.01 µM (active)
GI50 (SN12C): < 0.01 µM (active)
GI50 (HCT-15): < 0.01 µM
GI50 (Malme-3M): 16.4 µM (inactive)
GI50 (NCI-H522): < 0.01 µM (active)
GI50 (MCF7): 0.0317 µM (active)
GI50 (OVCAR-8): < 0.01 µM (active)
GI50 (COLO 205): < 0.01 µM (active)
